Data: patent US20250074891A1 (Anaxis Pharma Pty Ltd., priority 2021, published 2025)
Like-named read-outs stand apart in the source and are kept apart here.

How the values were obtained:
endogenous MLKL in U937 = endogenous MLKL in U937 (Homo sapiens (Human), UniProt Q8NB16); assay: Degradation assay: degradation of endogenous MLKL in human cells (Western blot); conditions: 24 h incubation, read-out: Degradation of endogenous MLKL in U937 (DC50 cell-based assay in μM)
Experimental: DEGRADATION ASSAY: Screening Compounds Procedure to Evaluate the Activity of Compounds in Degrading Endogenous MLKL in Human Cell
The human monocyte cell line (U937) was seeded on the day of the experiment in a 24-well plate at a cell density of 5*10^5 cells per well in a volume of 0.5 mL per well.
The compound was diluted in DMSO with a starting concentration of 10 mM and titrated stepwise with a dilution of 1:5. 0.5 μL of the compound dilution was added to the appropriate well to achieve a final concentration of 10; 2; 0.4; 0.08 and 0.016 μM. A DMSO only well was included as control.
The cells were incubated for 24 h in the presence of the compound at 37° C. and 10% CO2.
After the 24 h incubation period, the medium was removed and cells washed with 0.5 mL PBS. The cells were then lysed directly in 60 μL of 1×SDS gel loading buffer.
The cell lysate was heat-denatured at […] for 10 min. 10 μL of lysate per well were run on 18-well 4-15% Criterion TGX stain free gels (BIO-RAD). The proteins were then transferred onto nitrocellulose membrane with a wet transfer protocol in the Criterion Blotter (BIO-RAD).
Membranes were blocked with 5% skim milk in TBST. Primary antibody against MLKL (clone 3H1, MABC604 Merck) was used at 1:2000 dilution in TBST with 1% BSA and left shaking over night at 4° C. After washes with TBST, the membranes were incubated with goat anti-rat IgG HRP-conjugated antibody (Southern Biotech) in 1% skim milk TBST at 1:10000 dilution for 1 h at room temperature. After TBST washes the bands were imaged on the ChemiDoc MP Imaging Systm (BIO-RAD) with Immobilion Western Chemiluminescent HRP Substrate Forte (Millipore). The loading control GAPDH was probed for with rabbit anti-GAPDH (CST 14C10) at 1:2000 dilution in 1% BSA TBST over night at 4° C. TBST washes were followed by incubation with goat anti-rabbit IgG HRP-conjugated antibody (Southern Biotech) in 1% skim milk TBST at 1:10000 dilution for 1 h at room temperature followed by TBST washes. The signal was detected as described above.
The band intensity was measured in the ImageLab Software (BIO-RAD) and the MLKL values adjusted for loading with GAPDH. The percentage of degradation was calculated by normalizing the compound treated values to the DMSO only control.

MLKL (full length) = MLKL (full length) (Homo sapiens (Human), UniProt Q8NB16); assay: KINOMEscan binding assay, MLKL (full length); conditions: Table 36
Experimental: Kinase assays. For most assays, kinase-tagged T7 phage strains were grown in parallel in 24-well blocks in an E. coli host derived from the BL21 strain. E. coli were grown to log-phase and infected with T7 phage from a frozen stock (multiplicity of infection=0.4) and incubated with shaking at 32° C. until lysis (90-150 minutes).
The Hill Slope was set to −1.

U937 cells = assay: Counter screen: cell viability without TSQ cocktail (off-target effect); parameters: species or system human
Experimental: Counter screen: In parallel, all compounds were tested for their ability to affect cell viability. The same U937 cells were treated with compound in DMSO without the TSQ cocktail. This counter screen enabled evaluation of off-target effects. In this case, cell viability was measured by CelltiterGlo.

[1] = tested on: U937 human histiocytic leukemia cell line; assay: Cellular assay: inhibition of TSQ induced necroptosis (CellTitre-Glo); conditions: U937 cells, TSQ cocktail, 48 hours, Table 38, read-out: Inhibition of TSQ-induced necroptosis (IC50 cell-based assay)
In short: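 U937 cells (20,000/well) pre-dosed with compound (10-point, 1:3 from 36 μM, 0.3% DMSO), then TSQ (hTNF-Fc 100 ng/ml, Smac mimetic 500 nM, Q-VD-OPh 10 μM) for 48 h at 37 °C. Viability by CellTiter-Glo luminescence, normalised to DMSO (100%) and DMSO+TSQ (0%); IC50 from 4-parameter fit.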

[2] = Homo sapiens, U-937, Table 38, read-out: Off-target effect (IC50 cell-based assay)

MLKL (full length), sequence (Q8NB16 whole entry): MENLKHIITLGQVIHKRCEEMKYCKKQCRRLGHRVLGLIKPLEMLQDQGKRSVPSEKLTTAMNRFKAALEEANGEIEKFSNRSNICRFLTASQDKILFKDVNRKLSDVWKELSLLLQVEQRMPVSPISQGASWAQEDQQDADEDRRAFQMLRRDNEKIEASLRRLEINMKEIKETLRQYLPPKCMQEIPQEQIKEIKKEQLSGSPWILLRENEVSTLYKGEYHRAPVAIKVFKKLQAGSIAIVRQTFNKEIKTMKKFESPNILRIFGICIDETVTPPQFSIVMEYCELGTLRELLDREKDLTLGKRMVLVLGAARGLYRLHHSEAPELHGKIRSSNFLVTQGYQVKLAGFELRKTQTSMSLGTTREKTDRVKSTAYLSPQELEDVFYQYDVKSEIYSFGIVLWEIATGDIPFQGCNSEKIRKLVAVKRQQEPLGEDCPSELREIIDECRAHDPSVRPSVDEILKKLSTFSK
endogenous MLKL in U937, sequence (Q8NB16 whole entry): as above

| DC50 (endogenous MLKL in U937) | Kd (MLKL (full length)) | Structure (SMILES) | IC50 (U937 cells; [2]) | IC50 ([1]; Homo sapiens, U-937) | IC50 (U937 cells; Table 38, read-out: Off-target effect (IC50 cell-based assay)) | IC50 [1] |
| --- | --- | --- | --- | --- | --- | --- |
| < 1 µM | 0.01 to 1 µM | CCS(=O)(=O)Nc1ccc(-c2n[nH]c(Nc3ccc(C(=O)OCCCCCCC(=O)N[C@H](C(=O)N4C[C@H](O)C[C@H]4C(=O)NCc4ccc(-c5scnc5C)cc4)C(C)(C)C)cn3)c2C(N)=O)cc1O[C@@H](C)c1ccc(F)cc1 [Compound 1058, 6-{[(2S)-1-[(2S,4R)-4-hydroxy-2-({[4-(4-methyl-1,3-thiazol-5-yl)phenyl]methyl}carbamoyl)pyrrolidin-1-yl]-3,3-dimethyl-1-oxobutan-2-yl]carbamoyl}hexyl 6-[(4-carbamoyl-3-{4-ethanesulfonamido-3-[(1S)-1-(4-fluorophenyl)ethoxy]phenyl}-1H-pyrazol-5-yl)amino]pyridine-3-carboxylate] | > 10 µM | < 1 µM |  |  |
| 1 to 10 µM | < 0.01 µM | CCS(=O)(=O)Nc1ccc(-c2n[nH]c(Nc3ccc(C(=O)NCCCCC(=O)N[C@@H](C(=O)N4C[C@@H](O)C[C@@H]4C(=O)NCc4ccc(-c5scnc5C)cc4)C(C)(C)C)cn3)c2C(N)=O)cc1OC(C)c1ccc(F)cc1 (stereo in doubt) [Compound 1029, 3-{4-ethanesulfonamido-3-[(1R)-1-(4-fluorophenyl)ethoxy]phenyl}-5-({5-[(4-{[(2R)-1-[(2R,4S)-4-hydroxy-2-({[4-(4-methyl-1,3-thiazol-5-yl)phenyl]methyl}carbamoyl)pyrrolidin-1-yl]-3,3-dimethyl-1-oxobutan-2-yl]carbamoyl}butyl)carbamoyl]pyridin-2-yl}amino)-1H-pyrazole-4-carboxamide] | > 10 µM | < 1 µM |  |  |
| < 1 µM | 0.01 to 1 µM | CCS(=O)(=O)Nc1ccc(-c2n[nH]c(Nc3ccc(C(=O)OCCCCC(=O)N[C@H](C(=O)N4C[C@H](O)C[C@H]4C(=O)NCc4ccc(-c5scnc5C)cc4)C(C)(C)C)cn3)c2C(N)=O)cc1O[C@@H](C)c1ccc(F)cc1 [Compound 1039, 4-{[(2S)-1-[(2S,4R)-4-hydroxy-2-({[4-(4-methyl-1,3-thiazol-5-yl)phenyl]methyl}carbamoyl)pyrrolidin-1-yl]-3,3-dimethyl-1-oxobutan-2-yl]carbamoyl}butyl 6-[(4-carbamoyl-3-{4-ethanesulfonamido-3-[(1S)-1-(4-fluorophenyl)ethoxy]phenyl}-1H-pyrazol-5-yl)amino]pyridine-3-carboxylate] | > 10 µM | < 1 µM |  |  |
| < 1 µM | 0.01 to 1 µM | CCS(=O)(=O)Nc1ccc(-c2n[nH]c(Nc3ccc(C(=O)OCCCCC(=O)N[C@H](C(=O)N4CC(O)C[C@H]4C(=O)NCc4ccc(-c5scnc5C)cc4)C(C)(C)C)cn3)c2C(N)=O)cc1O[C@@H](C)c1ccc(F)cc1 (stereo in doubt) [Compound 1056, 4-{[(2S)-1-[(2S,4S)-4-hydroxy-2-({[4-(4-methyl-1,3-thiazol-5-yl)phenyl]methyl}carbamoyl)pyrrolidin-1-yl]-3,3-dimethyl-1-oxobutan-2-yl]carbamoyl}butyl 6-[(4-carbamoyl-3-{4-ethanesulfonamido-3-[(1S)-1-(4-fluorophenyl)ethoxy]phenyl}-1H-pyrazol-5-yl)amino]pyridine-3-carboxylate] |  |  | > 10 µM | < 1 µM |

Further lines, the compound ahead of its results:

| Structure (SMILES) | DC50 (endogenous MLKL in U937) | Kd (MLKL (full length)) | IC50 (U937 cells; [2]) | IC50 ([1]; Homo sapiens, U-937) | IC50 (U937 cells; Table 38, read-out: Off-target effect (IC50 cell-based assay)) | IC50 [1] |
| --- | --- | --- | --- | --- | --- | --- |
| Cc1ncsc1-c1ccc(CNC(=O)[C@@H]2C[C@@H](O)CN2C(=O)[C@@H](NC(=O)CN2CCC(Oc3ccc(Nc4[nH]nc(-c5ccc(NS(=O)(=O)C(F)F)c(O[C@@H](C)c6ccc(F)cc6)c5)c4C(N)=O)nc3)CC2)C(C)(C)C)cc1 [Compound 1050, 3-[4-(difluoromethanesulfonamido)-3-[(1S)-1-(4-fluorophenyl)ethoxy]phenyl]-5-[(5-{[1-({[(2S)-1-[(2S,4R)-4-hydroxy-2-({[4-(4-methyl-1,3-thiazol-5-yl)phenyl]methyl}carbamoyl)pyrrolidin-1-yl]-3,3-dimethyl-1-oxobutan-2-yl]carbamoyl}methyl)piperidin-4-yl]oxy}pyridin-2-yl)amino]-1H-pyrazole-4-carboxamide] | < 1 µM | 0.01 to 1 µM | > 10 µM | 1 to 10 µM |  |  |
| Cc1ncsc1-c1ccc(CNC(=O)[C@@H]2C[C@@H](O)CN2C(=O)[C@@H](NC(=O)CCCCOc2cc(Nc3[nH]nc(-c4ccc(NS(=O)(=O)CC(F)(F)F)cc4)c3C(N)=O)ccn2)C(C)(C)C)cc1 [Compound 1016, 5-{[2-(4-{[(2S)-1-[(2S,4R)-4-hydroxy-2-({[4-(4-methyl-1,3-thiazol-5-yl)phenyl]methyl}carbamoyl)pyrrolidin-1-yl]-3,3-dimethyl-1-oxobutan-2-yl]carbamoyl}butoxy)pyridin-4-yl]amino}-3-[4-(2,2,2-trifluoroethanesulfonamido)phenyl]-1H-pyrazole-4-carboxamide] | 1 to 10 µM | < 0.01 µM | > 10 µM | 1 to 10 µM |  |  |
| Cc1ncsc1-c1ccc(CNC(=O)[C@@H]2C[C@@H](O)CN2C(=O)[C@@H](NC(=O)CCCCCOc2ccc(Nc3[nH]nc(-c4ccc(NS(=O)(=O)C(F)F)c(O[C@@H](C)c5ccc(F)cc5)c4)c3C(N)=O)nc2)C(C)(C)C)cc1 [Compound 1048, 3-[4-(difluoromethanesulfonamido)-3-[(1S)-1-(4-fluorophenyl)ethoxy]phenyl]-5-({5-[(5-{[(2S)-1-[(2S,4R)-4-hydroxy-2-({[4-(4-methyl-1,3-thiazol-5-yl)phenyl]methyl}carbamoyl)pyrrolidin-1-yl]-3,3-dimethyl-1-oxobutan-2-yl]carbamoyl}pentyl)oxy]pyridin-2-yl}amino)-1H-pyrazole-4-carboxamide] | < 1 µM | < 0.01 µM | > 10 µM | < 1 µM |  |  |
| Cc1ncsc1-c1ccc(CNC(=O)[C@@H]2C[C@@H](O)CN2C(=O)[C@@H](NC(=O)CCCCCCn2ccc(Nc3[nH]nc(-c4ccc(NS(=O)(=O)C(F)F)c(O[C@@H](C)c5ccc(F)cc5)c4)c3C(N)=O)n2)C(C)(C)C)cc1 [Compound 1040, 3-[4-(difluoromethanesulfonamido)-3-[(1S)-1-(4-fluorophenyl)ethoxy]phenyl]-5-{[1-(6-{[(2S)-1-[(2S,4R)-4-hydroxy-2-({[4-(4-methyl-1,3-thiazol-5-yl)phenyl]methyl}carbamoyl)pyrrolidin-1-yl]-3,3-dimethyl-1-oxobutan-2-yl]carbamoyl}hexyl)-1H-pyrazol-3-yl]amino}-1H-pyrazole-4-carboxamide] | 1 to 10 µM | < 0.01 µM | > 10 µM | < 1 µM |  |  |
| CCS(=O)(=O)Nc1ccc(-c2n[nH]c(Nc3ccc(C(=O)NCC(=O)N[C@@H](C(=O)N4C[C@@H](O)C[C@@H]4C(=O)NCc4ccc(-c5scnc5C)cc4)C(C)(C)C)cn3)c2C(N)=O)cc1O[C@H](C)c1ccc(F)cc1 (stereo in doubt) [Compound 1026, 3-{4-ethanesulfonamido-3-[(1R)-1-(4-fluorophenyl)ethoxy]phenyl}-5-({5-[({[(2R)-1-[(2R,4S)-4-hydroxy-2-({[4-(4-methyl-1,3-thiazol-5-yl)phenyl]methyl}carbamoyl)pyrrolidin-1-yl]-3,3-dimethyl-1-oxobutan-2-yl]carbamoyl}methyl)carbamoyl]pyridin-2-yl}amino)-1H-pyrazole-4-carboxamide] | 1 to 10 µM | < 0.01 µM | > 10 µM | 1 to 10 µM |  |  |
| Cc1ncsc1-c1ccc(CNC(=O)[C@@H]2C[C@@H](O)CN2C(=O)[C@@H](NC(=O)CCCCOC(=O)c2ccc(Nc3[nH]nc(-c4ccc(NS(=O)(=O)C(F)F)c(F)c4)c3C(N)=O)nc2)C(C)(C)C)cc1 [Compound 1053] | 1 to 10 µM | < 0.01 µM | > 10 µM | 1 to 10 µM |  |  |
